US20210353648A1, “GRAPIPRANT UNIT DOSAGE FORMS” (Arrys Therapeutics, Inc., priority 2018, published 2021)

Tests used:
[1] = Phase 1 crossover food effect study of 375 mg grapiprant tablets: safety; format: in vivo, human; settings: for subjects with treatment-emergent adverse events / treatment-emergent adverse events: 12 subjects
Method: This study was a randomized, open-label, single dose, 2-period crossover design. Each subject participated in 2 study periods. In each study period, subjects received a dose of 375 mg administered as 3×125 mg tablets of grapiprant under fasted or fed conditions in a crossover manner according to a randomized dosing sequence. The fed condition consisted of a standardized high-fat meal. Following an initial screening period of no longer than 28 days, 12 eligible subjects were to be randomized to the 2 treatment sequences and 2 treatment period sessions as shown in Table 6-1.
All subjects were evaluated for safety, which was assessed by adverse events either spontaneously reported or elicited by non-leading questions from study staff, clinical observations, safety laboratory tests, vital signs, 12-lead ECGs, concomitant medication assessment, physical examination, and fecal occult blood tests.

[2] = Phase 1 single ascending dose study of grapiprant OPC: safety and tolerability; format: in vivo
Method: Eligible subjects were to be enrolled into 8 sequential cohorts, corresponding to the planned dose levels of 1 mg, 3 mg, 10 mg, 30 mg, 100 mg, 300 mg, 600 mg, and 1000 mg. […] After determining a maximum tolerated dose (MTD), or after completing the highest dose cohort if a MTD was not determined, Cohort 11 would be enrolled to increase the number of subjects evaluated at the MTD (or the highest dose).
In each dosing period, subjects were confined to the Clinical Research Unit (CRU) for approximately 60 hours (from approximately 36 hours predose through 24 hours postdose), and were instructed to return to the study site at 48 hours postdose for collection of blood samples for safety and pharmacokinetic evaluations. Subjects had triplicate ECG measurements made at select time-points on Day 0 (to provide a time-matched baseline) and through 24 hours postdose. Continuous cardiac monitoring by telemetry was performed for 12 hours postdose (or up to 24 hours, if warranted, based on the pharmacokinetic data). Creatine phosphokinase (CPK; total CPK and CPK-MB isoenzyme) and troponin I levels were monitored predose and at 12 and 24 hours postdose. In each dosing period, blood samples were collected predose and at 0.5, 1, 1.5, 2, 2.5, 3, 4, 6, 8, 12, 16, 24, and 48 hours postdose for pharmacokinetic evaluation. Fecal occult blood was monitored predose and through 48 hours postdose. Urine was collected through 24 hours postdose for exploratory biotransformation analyses. Since grapiprant may be a substrate of efflux transporters, genotyping for P-gp, an efflux transporter, was also planned for this study.
Safety: All subjects were evaluated for safety. Subjects were queried regarding adverse events (AEs) at 24 hours prior to dosing, 0 hours predose (baseline), and 1, 2, 4, 8, and 12 hours postdose. A limited physical examination, clinical laboratory tests, and fecal occult blood test were performed 24 hours prior to dosing. Vital signs measurements and 12-lead ECGs were performed in triplicate (approximately 2 minutes apart) at specified intervals in the 24 hours before dosing, 0 hours (predose), and at 0.5, 1, 1.5, 2, 3, 4, 8, and 12 hours postdose. Continuous cardiac telemetry monitoring was started at 1 hour postdose and continued for 12 hours postdose Fecal occult blood was monitored for 48 hours postdose.

[3] = Phase 1 multiple ascending dose study of grapiprant tablets: safety and tolerability
From the text: Study Design: This was a randomized, investigator-blind, subject-blind, sponsor-open, placebo controlled, sequential parallel-group, multiple ascending dose study of grapiprant tablets.
Safety Evaluations: Safety evaluations included clinical monitoring, adverse events (AEs), clinical laboratory tests including renal function tests, bone markers (serum bone-specific alkaline phosphatase and osteocalcin and urinary N-terminal telopeptide of type I collagen), vital signs (heart rate and blood pressure), and 12-lead ECGs.
Safety Analyses: Safety data are presented in tabular and/or graphical format and summarized descriptively.
Bone markers were analyzed as percentage change from baseline and the influence of potential outliers was assessed.

## CCc1nc2c(C)nc(C)cc2n1-c1ccc(CCNC(=O)NS(=O)(=O)c2ccc(C)cc2)cc1 [Grapiprant, N-((4-(2-ethyl-4,6-dimethyl-1H-imidazo[4,5-c]pyridin-1-yl)phenethyl)carbamoyl)-4-methylbenzenesulfonamide]
[1]; 375 mg tablet-fasted treatment
  subjects with treatment-emergent adverse events: 5 subjects
  treatment-emergent adverse events: 7 events
[1]; 375 mg tablet-fed treatment
  subjects with treatment-emergent adverse events: 4 subjects
  treatment-emergent adverse events: 5 events
[1]; 375 mg, after both treatments
  intensity of adverse events: mild in intensity
[1]; 375 mg, fasted and fed
  QTc: no subjects had maximum QTc increases from baseline of ≥30 msec
  clinical laboratory tests or vital sign measurements: No subjects had clinically significant changes from baseline
  deaths, serious adverse events, withdrawals: no deaths, serious adverse events, or withdrawals due to adverse events
[1]; 375-mg dose of tablets, fasted and fed conditions, healthy adults
  tolerability: well-tolerated
[2]; 30 mg
  subjects reporting abdominal pain: 1 subject
[2]; 1 subject at 600 mg (not related), 1 each at 1500 mg and 2000 mg
  SAEs: Three subjects experienced SAEs
[2]; 1500 mg
  subjects reporting abdominal pain: 2 subjects
[2]; 1500 mg treatment group
  incidence of AEs: 4 of 6 subjects
[2]; 2000 mg
  subjects reporting abdominal pain: 4 subjects
[2]; 2000 mg treatment group
  incidence of AEs: 5 of 6 subjects
[2]; 2 subjects, 1 each at 1500 mg and 2000 mg
  serum creatinine and BUN (COSTART term: acute renal failure): mild, treatment-related elevations in serum creatinine and BUN
[2]; 26 of the 61 subjects treated, single doses 1 mg to 2000 mg
  subjects experiencing AEs: 43%
[2]; all dose levels
  deaths or discontinuations due to AEs: No deaths or discontinuations due to AEs
  fecal occult blood: No positive results for fecal occult blood tests
  vital signs measurements, cardiac telemetry, ECG parameters: No clinically important, study drug-related changes
[2]; among the 12 subjects who received 1500 or 2000 mg
  subjects with treatment-related abdominal pain: 6 subjects
[2]; single doses ranging from 1 mg to 1000 mg
  tolerability: generally well tolerated
[3]; 50 mg BID, healthy subjects
  AEs reported: 7 AEs
[3]; 50 mg BID, healthy subjects (9 treated)
  subjects reporting AEs: 4 subjects
[3]; 150 mg BID, healthy subjects
  AEs reported: 23 AEs
[3]; 150 mg BID, healthy subjects (9 treated)
  subjects reporting AEs: 7 subjects
[3]; 250 mg BID, elderly subjects
  AEs reported: 44 AEs
[3]; 250 mg BID, elderly subjects (15 treated)
  subjects reporting AEs: 14 subjects
[3]; 250 mg BID, elderly subjects with mild renal impairment
  tolerability: well tolerated
[3]; 300 mg BID, healthy subjects
  AEs reported: 13 AEs
[3]; 300 mg BID, healthy subjects (9 treated)
  subjects reporting AEs: 6 subjects
[3]; all cohorts
  deaths: No deaths
  severity of most treatment-emergent AEs: mild
  vital signs and ECGs: no clinically significant mean changes from baseline
[3]; elderly subjects with mild renal impairment, 250 mg BID, versus placebo group
  systolic blood pressure: small increase from baseline
[3]; grapiprant versus placebo
  laboratory safety tests, including renal function tests: no clinically significant findings
[3]; healthy subjects, doses up to 300 mg BID, triplicate BP monitoring
  systolic blood pressure: no difference between changes from baseline compared with placebo
[3]; multiple-dose administration for 14 days, doses up to 300 mg BID, healthy adult subjects
  tolerability: well tolerated
[3]; one elderly subject, 250 mg BID
  withdrawal due to AE: non-drug related AE of ventricular tachycardia
[3]; one healthy subject, 150 mg BID
  serious AEs considered related to the study medication: decreased hemoglobin, decreased hematocrit, and gastrointestinal hemorrhage
